Source: US6066642A, “Dihydropyridine-, pyridine-, benzopyran-4-one- and triazoloquinazoline derivative, their preparation and their use as adenosine receptor antagonists” (priority 1998, dated 2000)
Blank lines part the entries; values can stand above or below the molecule they belong to.

Tests used:
A3 specific binding = A3 specific binding after blocking A1 and A2 specific binding sites with a xanthine amino congener; settings: A1 and A2 sites blocked with xanthine amino congener
Excerpt: Adenosine receptors have been implicated in the bronchoconstriction (BC) in allergic asthma.

HL-60 cells [1] = assay: apoptosis by flow cytometric DNA analysis, HL-60 cells; assay type: cell-based
Protocol: DNA content analysis by flow cytometry:
(§8) Cells were fixed by adding ~10^7 cells suspended in 1 ml of PBS of 1 ml 80% ethanol at -20° C. and stored for 48-120 hrs. After the cells were washed twice with PBS, the cells were stained with 20 mg/ml chromomycin A3 dissolved in PBS containing 2 mM MgCl2 by incubation in subdued light (30 min; 4° C.). The cells were then analyzed using a FACScan flow cytometer (Becton Dickinson, Mountain View, Calif.).

U-937 cells [2] = assay: live cell counting with trypan blue (cell death/proliferation), U-937 cells; assay type: cell-based; settings: for growth curve with A3 antagonist plus Cl-IB-MECA, U-937: antagonist 0.5 μM plus 0.01 or 1.0 μM Cl-IB-MECA
Protocol: (§1) The HL-60 cells were maintained in RPMI 1640 supplmented with 10% fetal calf serum, 100 units/ml penicillin, […] streptomycin and 2 mM L-glutamine. The cells were split every third day, and 2 days before each experiment cultures were diluted to 2×10^5 cells/ml. For analysis of DNA content, aliquots of 2 ml were placed into 12-well flat-bottomed plates (Costar, Cambridge, Mass., U.S.A.) containing 2~6 μl test-compound solutions at defined concentrations or 6 μl DMSO (diluting medium). Live cell counting was carried out using 0.1% trypan blue.
(§2) In the latter assay, cell death was studied in HL-60 cells (FIGS. 11A-B) and in U-937 cells (FIGS. 11C-D) over a time course of 9 days. Cells in culture receiving no drug treatment proliferated geometrically until nearly the end of the experiment.

HL-60 cells [3] = assay: in situ end-labeling of fragmented nuclear DNA (TUNEL), HL-60 cells; assay type: cell-based; settings: for fluorescent labeling of apoptotic cells, HL-60: 50 nM, 24 h, approximately; for Percentage of apoptotic cells, HL-60, + Cl-IB-MECA: antagonist 50 nM plus Cl-IB-MECA 10 nM; for Percentage of apoptotic cells, HL-60: antagonist 50 nM
Protocol: (§3) Cells were fixed by immersing slides in 4% methanol-free formaldehyde in PBS at pH 7.4, 4° C., for 25 min. Fixed cells were permeabilized in 0.2% Triton® X-100 in PBS at 4° C. for 5 min. After preincubation with […] Promega equilibration buffer for 10 min at room temperature, the cells were covered with 50 μl TdT incubation buffer and a coverslip and maintained at 37° C. for 60 min inside the dark humidified chamber to protect from dry and direct light. In order to stop the reaction, the coverslip was removed and the slides were immersed in 2×SSC for 15 min at room temperature. The cells were restained by propidium iodide 1 μg/ml in PBS for 15 min. After every step, the cells were rinsed 2-3 times with fresh PBS for 5 min each. Finally, the glass slides were sealed with nail polish. The slides were stored at 4° C. in the dark.
(§4) The evidence that DNA strand breaks, characteristic of apoptosis, are induced by the A3 antagonists was obtained using in situ end-labelingin-situ of fragmented nuclear DNA by terminal deoxynucleotidyl transferase (TUNEL method, Cooke, H., Trends in Biotech., 10, 23 (1992)), which incorporates a fluorescent label at the 3'-ends. […] In the control cultures and in those treated with 10 nM Cl-IB-MECA alone, spontaneous apoptosis occured in only 5-7% of the cells (Table 17). […] The reversal of antagonist-induced apoptosis by the agonist is similar to that observed for the growth curves, except that both agonist and antagonist were applied at lower concentrations.

HL-60 cells [4] = assay: live cell counting with trypan blue (cell death/proliferation), HL-60 cells; assay type: cell-based; settings: for growth curve with A3 antagonist plus Cl-IB-MECA, HL-60: antagonist 0.5 μM plus 0.01 or 1.0 μM Cl-IB-MECA
Protocol: as §1, §2

U-937 cells [5] = assay: apoptosis by flow cytometric DNA analysis, U-937 cells; assay type: cell-based
Protocol: DNA content analysis by flow cytometry:
as §8

[6] = tested on: bak protein in U-937 cells; assay: expression of apoptosis-inducing protein bak by immunofluorescence, U-937 cells; assay type: cell-based; settings: for bak labeling, U-937: 24 hours
Protocol: (§5) Cells were fixed as following steps: 10 min with 1% formalin in PBS, 5 min with […] methanol and 2 min with ice cold acetone, then permebilized with 0.1% Nonidet P-40 for 20 min. After the preparation, the specimens were incubated step by step: 10% goat serum in PBS for 20 min, mouse monoclonal anti-bak antibody (5 μg/ml PBS-BSA) for 60 min, Rhodamine (TRITC)-conjugated AffiniPure Goat Anti-mouse IgG (H+L) in PBS-BSA for 60 min. The specimens were washed 3-5 times with PBS after every step. The glass slides were stored at 4° C. in the dark.
(§6) The mechanism of the apoptosis observed in response to either A3 agonists was investigated.

[7] = tested on: bak protein in HL-60 cells; assay: expression of apoptosis-inducing protein bak by immunofluorescence, HL-60 cells; assay type: cell-based; settings: for bak labeling, HL-60: 24 hours
Protocol: as §5, §6

[8] = tested on: bak in 1321N astrocytoma cells; assay: expression of bak, 1321N cells; assay type: cell-based; settings: 10 μM
Protocol: as §5
(§7) Various other cell lines were investigated for the expression of bak in response to the A3 agonist.

[9] = tested on: bak in MCF7 breast adenocarcinoma cells; assay: expression of bak, MCF7 cells; assay type: cell-based; settings: 10 μM
Protocol: as §5, §7

U-937 cells [10] = assay: in situ end-labeling of fragmented nuclear DNA (TUNEL), U-937 cells; assay type: cell-based; settings: for fluorescent labeling of apoptotic cells, U-937: 50 nM, 24 h, approximately; for Percentage of apoptotic cells, U937, + Cl-IB-MECA: antagonist 50 nM plus Cl-IB-MECA 10 nM; for Percentage of apoptotic cells, U937: antagonist 50 nM
Protocol: as §3, §4

adenosine receptors = settings: pancreatic islets; cited from earlier work
adenosine receptor = settings: [3H]cyclohexyladenosine and [3H]1,3-diethyl-8-phenylxanthine; cited from earlier work
rabbit lung = assay: bronchoconstriction / dynamic compliance (Cdyn) in allergic rabbits; assay type: in vivo, New Zealand white rabbit; settings: antagonist 10^-5 M, 2 minute aerosol, co-administered with agonist
A2a receptors = biological target: T1, A2a receptors (Rattus norvegicus, UniProt P30543); assay: radioligand binding, displacement of specific [3H]CGS 21680 binding in rat striatal membranes; settings: Table 11; 10^-4 M; read-out: displacement of specific binding rA2A
T1 construct: Displacement of specific [^3 H]; from tissue; host or cells: rat striatal membranes
T1 sequence (P30543 whole entry): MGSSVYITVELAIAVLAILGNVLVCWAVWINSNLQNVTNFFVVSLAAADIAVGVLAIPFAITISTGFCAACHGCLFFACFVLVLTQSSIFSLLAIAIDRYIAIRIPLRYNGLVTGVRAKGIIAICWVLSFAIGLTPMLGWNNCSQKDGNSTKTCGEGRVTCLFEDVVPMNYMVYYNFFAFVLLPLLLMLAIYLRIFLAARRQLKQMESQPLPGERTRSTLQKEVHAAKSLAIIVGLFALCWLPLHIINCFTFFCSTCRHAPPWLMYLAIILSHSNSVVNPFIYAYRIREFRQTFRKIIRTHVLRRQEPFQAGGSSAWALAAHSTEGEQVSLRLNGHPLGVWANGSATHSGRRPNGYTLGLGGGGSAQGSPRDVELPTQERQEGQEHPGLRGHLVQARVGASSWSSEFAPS
Protocol: ^b Displacement of specific [^3 H]
or as a percentage of specific binding displaced at 100 μM.

Female Mongolian gerbils = assay: bilateral carotid occlusion (stroke) in gerbils, survival and intact neurons; assay type: in vivo, Mongolian gerbil; settings: for survival rate after ischemia: 100 μg/kg 15 min after occlusion; for intact neurons: 100 μg/kg
Protocol: Control gerbils were injected with saline. The survival of the animals was followed as a function of time after ischemia.
The number of intact neurons was also counted.

[11] = sublethal concentrations incl. 10 nM
[12] = 10 nM Cl-IB-MECA with either antagonist
[13] = 10 nM alone, range covers both cell lines and controls
[14] = Table 17, Cl-IB-MECA 10 nM, 48 hour

- displacement of A3 specific binding (A3 specific binding): A3 specific binding was displaced
Compound: Nc1ccc(CCNc2ncnc3c2ncn3[C@@H]2O[C@H](CO)[C@@H](O)[C@H]2O)cc1 [APNEA]

Compound: CNC(=O)[C@H]1O[C@@H](n2cnc3c(NCc4cccc(I)c4)nc(Cl)nc32)[C@H](O)[C@@H]1O [Cl-IB-MECA, N^6-(3-iodobenzyl)-2-chloro-adenosine-5'-N-methyluronamide]
- concentration at which plateau of apoptosis begins, HL-60 (HL-60 cells [1]; 48 hours): approximately 10 μM
- plateau in the percent of apoptotic cells, HL-60 (HL-60 cells [1]; 48 hours): 30-50%
- apoptosis in HL-60 cells (HL-60 cells [1]; high concentrations (≥μM)): caused apoptosis
- apoptosis at lower concentrations, HL-60 (HL-60 cells [1]; ≤1 μM): did not significantly promote apoptosis
- growth curve, U-937 (U-937 cells [2]; 0.01 or 1.0 μM alone, 9 days): no deviation from this growth curve was observed
- effect of agonist on impairment of proliferation by antagonist, U-937 (U-937 cells [2]; [11]): reversed the impairment of cell proliferation
- general cell death at lower concentrations, U-937 (U-937 cells [2]; ≤1 μM, trypan blue): did not significantly promote
- coadministration with antagonist, apoptotic cells, HL-60 (HL-60 cells [3]; [12]): suppressed the increase in apoptotic cells
- apoptosis (TUNEL), Cl-IB-MECA alone, HL-60 (HL-60 cells [3]; [13]): 5-7%
- DNA fragmentation labeling (TUNEL), HL-60 (HL-60 cells [3]; 30 μM): approximately 50%
- Percentage of apoptotic cells, HL-60, Cl-IB-MECA alone (HL-60 cells [3]; [14]): 7.1 Percentage
- growth curve, HL-60 (HL-60 cells [4]; 0.01 or 1.0 μM alone, 9 days): no deviation from this growth curve was observed
- death of HL-60 cells in culture (HL-60 cells [4]; 20 or 40 μM, after 4 days): > 90%
- effect of agonist on impairment of proliferation by antagonist, HL-60 (HL-60 cells [4]; [11]): reversed the impairment of cell proliferation
- general cell death at lower concentrations, HL-60 (HL-60 cells [4]; ≤1 μM, trypan blue): did not significantly promote
- concentration at which plateau of apoptosis begins, U-937 (U-937 cells [5]; 48 hours): approximately 10 μM
- plateau in the percent of apoptotic cells, U-937 (U-937 cells [5]; 48 hours): 30-50%
- apoptosis in U-937 cells (U-937 cells [5]; high concentrations (≥μM)): A similar response was observed
- apoptosis at lower concentrations, U-937 (U-937 cells [5]; ≤1 μM): did not significantly promote apoptosis
- expression of bak, U-937 ([6]; 30 μM): induced a significant level of expression of bak
- expression of bak, U-937 ([6]; ≤1 μM): not concentrations ≤1 μM
- expression of bak, HL-60 ([7]; 30 μM): induced a significant level of expression of bak
- expression of bak, HL-60 ([7]; ≤1 μM): not concentrations ≤1 μM
- expression of bak, 1321N [8]: found to induce the expression of bak
- expression of bak, MCF7 [9]: found to induce the expression of bak
- coadministration with antagonist, apoptotic cells, U-937 (U-937 cells [10]; [12]): suppressed the increase in apoptotic cells
- apoptosis (TUNEL), Cl-IB-MECA alone, U-937 (U-937 cells [10]; [13]): 5-7%
- DNA fragmentation labeling (TUNEL), U-937 (U-937 cells [10]; 30 μM): approximately 50%
- Percentage of apoptotic cells, U937, Cl-IB-MECA alone (U-937 cells [10]; [14]): 5.6 Percentage

Compound: COC(=O)C1=C(C)NC(C)=C(C(=O)OC)C1c1ccccc1[N+](=O)[O-] [Compound 60, nifedipine]
- interaction with adenosine receptors mediating inhibition of insulin secretion (adenosine receptors): may not interact with adenosine receptors
- effect on adenosine receptor binding (adenosine receptor): potent in reducing the binding

Compound: CCOC(=O)C1=C(C)NC(c2ccccc2)=C(C(=O)OCc2ccccc2)C1C#Cc1ccccc1 (stereo not drawn) [Compound 101]
- growth curve with A3 antagonist plus Cl-IB-MECA, U-937 (U-937 cells [2]): the growth curves were nearly coincident with control curves
- fluorescent labeling of apoptotic cells, HL-60 (HL-60 cells [3]): 30-40%
- Percentage of apoptotic cells, HL-60, + Cl-IB-MECA (HL-60 cells [3]; Table 17, 48 hour): 11.6 Percentage
- Percentage of apoptotic cells, HL-60 (HL-60 cells [3]; Table 17, 48 hour): 39.7 Percentage
- growth curve with A3 antagonist plus Cl-IB-MECA, HL-60 (HL-60 cells [4]): the growth curves were nearly coincident with control curves
- percent change in dynamic compliance (Cdyn) (rabbit lung): much reduced
- bak labeling, U-937 [6]: present
- bak labeling, HL-60 [7]: present
- inhibition at 100 µM (A2a receptors): < 10%
- survival rate after ischemia (Female Mongolian gerbils; after 7 days): 90%
- survival rate after ischemia (Female Mongolian gerbils; after 90 days): 80%
- intact neurons (Female Mongolian gerbils; after 7 days): 75%
- intact neurons (Female Mongolian gerbils; after 90 days): 90%
- fluorescent labeling of apoptotic cells, U-937 (U-937 cells [10]): 30-40%
- Percentage of apoptotic cells, U937, + Cl-IB-MECA (U-937 cells [10]; Table 17, 48 hour): 10.4 Percentage
- Percentage of apoptotic cells, U937 (U-937 cells [10]; Table 17, 48 hour): 27.3 Percentage

Compound: CN1C=CC2=C(CC(=O)O)Cn3nc(-c4ccccc4)nc3C2=C1 [Compound L-249313, 6-carboxymethyl-5,9-dihydro-9-methyl-2-phenyl-[1,2,4]triazolo[5,1-a][2,7]-naphthyridine]
- inhibition of proliferation, U-937 (U-937 cells [2]; 0.5 μM alone): general inhibition of proliferation of cells
- growth curve with A3 antagonist plus Cl-IB-MECA, U-937 (U-937 cells [2]): the growth curves were nearly coincident with control curves
- fluorescent labeling of apoptotic cells, HL-60 (HL-60 cells [3]): 30-40%
- Percentage of apoptotic cells, HL-60, + Cl-IB-MECA (HL-60 cells [3]; Table 17, 48 hour): 12.0 Percentage
- Percentage of apoptotic cells, HL-60 (HL-60 cells [3]; Table 17, 48 hour): 31.2 Percentage
- inhibition of proliferation, HL-60 (HL-60 cells [4]; 0.5 μM alone): general inhibition of proliferation of cells
- growth curve with A3 antagonist plus Cl-IB-MECA, HL-60 (HL-60 cells [4]): the growth curves were nearly coincident with control curves
- bak labeling, U-937 [6]: present
- bak labeling, HL-60 [7]: present
- fluorescent labeling of apoptotic cells, U-937 (U-937 cells [10]): 30-40%
- Percentage of apoptotic cells, U937, + Cl-IB-MECA (U-937 cells [10]; Table 17, 48 hour): 10.9 Percentage
- Percentage of apoptotic cells, U937 (U-937 cells [10]; Table 17, 48 hour): 30.8 Percentage

Compound: COc1ccc([C@@H]2Sc3ccccc3N(CCN(C)C)C(=O)[C@@H]2OC(C)=O)cc1 [diltiazem]
- effect on adenosine receptor binding (adenosine receptor): negligible effects on adenosine receptor binding

Compound: COc1ccc(CCN(C)CCCC(C#N)(c2ccc(OC)c(OC)c2)C(C)C)cc1OC (stereo not drawn) [verapamil]
- interaction with adenosine receptors mediating inhibition of insulin secretion (adenosine receptors): may not interact with adenosine receptors
- effect on adenosine receptor binding (adenosine receptor): negligible effects on adenosine receptor binding
